Experimental data: US20220282217A1, “COMPOSITIONS AND METHODS FOR PREPARING T CELL COMPOSITIONS AND USES THEREOF” (priority 2019, published 2022)
Like-named read-outs stand apart in the source and are kept apart here. Where a SMILES comes first, the peptide text is derived from it.

Key:
HLA-A02.01 [1] = molecular target: HLA-A02.01 (Homo sapiens, UniProt P04439, D140Y/D185E/D98H/E176V/E277Q/G131W/G231S/I119V/I121R/I166T/I218V/L300P/L318F/N151K/N90K/P208A/P217A/Q86G/Q94H/R138H/R169H/T345S); assay: Class I MHC peptide binding affinity (displacement of radiolabeled reference peptide); details: allele A02.01, (nM))
Method in brief: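 MHC class I complexes were loaded with a radiolabeled reference peptide, then exposed to test peptides over a range of concentrations for 2 days. Reference peptide still bound to the complexes was quantified by size-exclusion gel filtration.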

HLA-A02.01 [2] = molecular target: T1, HLA-A02.01 (Homo sapiens, UniProt P04439, D140Y/D185E/D98H/E176V/E277Q/G131W/G231S/I119V/I121R/I166T/I218V/N151K/N90K/P208A/P217A/Q86G/Q94H/R138H/R169H); assay: Class I MHC peptide binding stability (pMHC-I dissociation, 125I-labeled light chain); details: for Stability (T1/2 (h)): allele A02.01; for Measured stability: HLA Allele A02.01, time for half of the complexes to dissociate at 37° C.
T1 construct: made in house; host or cells: E. coli

[3] = read-out: Observed Affinity (IC50

| SMILES | IC50 (HLA-A02.01 [1]; [3]) [nM] | Stability (T1/2 (h)) (HLA-A02.01 [2]) [h] | also measured |
| --- | --- | --- | --- |
| CC(C)C[C@H](NC(=O)[C@@H](NC(=O)[C@H](CC(=O)O)NC(=O)[C@H](CC(C)C)NC(=O)[C@@H](NC(=O)[C@@H](N)Cc1ccc(O)cc1)[C@@H](C)O)C(C)C)C(=O)N[C@@H](CCC(=O)O)C(=O)N[C@@H](CCCNC(=N)N)C(=O)N[C@@H](CS)C(=O)O | 1760 | 6.6 | – |
| CC[C@H](C)[C@H](N)C(=O)N[C@H](C(=O)N[C@H](C(=O)N[C@@H](CCC(=O)O)C(=O)N[C@@H](Cc1ccc(O)cc1)C(=O)N[C@@H](CS)C(=O)N[C@@H](Cc1ccccc1)C(=O)N[C@@H](Cc1ccc(O)cc1)C(=O)NCC(=O)O)[C@@H](C)CC)[C@@H](C)CC (H-IIIEYCFYG-OH; N-terminus and C-terminus assumed) | – | 1.2 | – |
| CSCC[C@H](NC(=O)[C@H](CCC(=O)O)NC(=O)[C@H](CC(C)C)NC(=O)[C@H](CC(C)C)NC(=O)[C@H](CC(C)C)NC(=O)[C@H](CC(=O)O)NC(=O)[C@H](CS)NC(=O)[C@H](CC(C)C)NC(=O)[C@@H]1CCCN1)C(=O)O (H-PLCDLLLEM-OH; N-terminus and C-terminus assumed) | 602 | 0.8 | – |
| CC(C)C[C@H](NC(=O)[C@H](CO)NC(=O)[C@H](CS)NC(=O)[C@H](CCC(=O)O)NC(=O)[C@H](Cc1c[nH]c2ccccc12)NC(=O)[C@H](CC(C)C)NC(=O)[C@H](C)NC(=O)[C@H](CC(C)C)NC(=O)[C@H](CC(C)C)NC(=O)[C@@H](N)Cc1ccccc1)C(=O)O | – | 10.8 | – |
| CSCC[C@H](NC(=O)[C@H](CS)NC(=O)[C@H](CO)NC(=O)[C@H](CO)NC(=O)[C@H](CC(N)=O)NC(=O)[C@H](CS)NC(=O)[C@H](CCSC)NC(=O)[C@@H](N)Cc1ccc(O)cc1)C(=O)NCC(=O)N[C@@H](CO)C(=O)O (H-YMCNSSCMGS-OH; N-terminus and C-terminus assumed) | – | 0.8 | – |
| CSCC[C@H](NC(=O)[C@H](CCC(N)=O)NC(=O)[C@H](CC(C)C)NC(=O)[C@@H](NC(=O)[C@@H](N)CCCCN)C(C)C)C(=O)N[C@@H](CC(=O)O)C(=O)N[C@@H](Cc1ccccc1)C(=O)N[C@@H](CC(C)C)C(=O)N[C@H](C(=O)O)C(C)C (H-KVLQMDFLV-OH; N-terminus and C-terminus assumed) | – | 6.4 | – |
| CC(C)C[C@H](N)C(=O)N[C@H](C(=O)N[C@H](C(=O)N[C@H](C(=O)NCC(=O)N[C@@H](C)C(=O)N[C@H](C(=O)NCC(=O)N[C@H](C(=O)O)C(C)C)C(C)C)C(C)C)C(C)C)C(C)C | – | 0.6 | Measured stability (HLA-A02.01 [2]): 0.6 h |
| CC[C@H](C)[C@H](NC(=O)[C@@H](N)C(C)C)C(=O)N[C@H](C(=O)N[C@@H](CCC(=O)O)C(=O)N[C@@H](Cc1ccc(O)cc1)C(=O)N[C@@H](CS)C(=O)N[C@@H](CS)C(=O)N[C@@H](Cc1ccc(O)cc1)C(=O)NCC(=O)O)[C@@H](C)CC (H-VIIEYCCYG-OH; N-terminus and C-terminus assumed) | – | 0.5 | – |
| CC(C)C[C@H](NC(=O)[C@H](CO)NC(=O)[C@H](CS)NC(=O)[C@H](CCC(=O)O)NC(=O)[C@H](Cc1c[nH]c2ccccc12)NC(=O)[C@H](CC(C)C)NC(=O)[C@H](C)NC(=O)[C@H](CC(C)C)NC(=O)[C@@H](N)CC(C)C)C(=O)O | – | 4 | – |
| CC(C)C[C@H](NC(=O)[C@@H](N)CCCCN)C(=O)N[C@H](C(=O)N[C@H](C(=O)N[C@H](C(=O)NCC(=O)N[C@@H](C)C(=O)N[C@@H](CC(=O)O)C(=O)NCC(=O)N[C@H](C(=O)O)C(C)C)C(C)C)C(C)C)C(C)C | – | 0.9 | Measured stability (HLA-A02.01 [2]): 0.9 h |
| CC(C)C[C@H](NC(=O)[C@@H](N)CC(C)C)C(=O)N[C@@H](CCC(N)=O)C(=O)N[C@@H](CCC(=O)O)C(=O)N[C@@H](Cc1ccccc1)C(=O)N[C@@H](CC(=O)O)C(=O)N[C@H](C(=O)N[C@@H](CCC(N)=O)C(=O)N[C@@H](CCC(=O)O)C(=O)N[C@@H](C)C(=O)O)C(C)C (H-LLQEFDVQEA-OH) | 45 | – | – |
| CC(C)C[C@H](NC(=O)[C@H](C)N)C(=O)N[C@@H](CCC(=O)O)C(=O)N[C@@H](CCC(=O)O)C(=O)N[C@@H](CCCCN)C(=O)N[C@@H](CCCCN)C(=O)NCC(=O)N[C@@H](CC(N)=O)C(=O)N[C@@H](Cc1ccc(O)cc1)C(=O)N[C@H](C(=O)O)C(C)C (H-ALEEKKGNYV-OH; N-terminus and C-terminus assumed) | 141 | – | – |
| CC(C)C[C@H](NC(=O)[C@H](Cc1c[nH]cn1)NC(=O)[C@H](Cc1c[nH]c2ccccc12)NC(=O)[C@H](CC(C)C)NC(=O)[C@@H](N)CCCNC(=N)N)C(=O)N[C@@H](CC(C)C)C(=O)N[C@@H](CC(C)C)C(=O)N[C@@H](CCC(N)=O)C(=O)N[C@H](C(=O)O)C(C)C (H-RLWHLLLQV-OH; N-terminus and C-terminus assumed) | 1.3 | – | – |
| CC[C@H](C)[C@H](NC(=O)[C@H](CC(=O)O)NC(=O)[C@H](CC(C)C)NC(=O)[C@@H](N)CC(C)C)C(=O)N[C@@H](CC(C)C)C(=O)N[C@@H](CC(=O)O)C(=O)N[C@H](C(=O)N[C@@H](C)C(=O)NCC(=O)N[C@@H](CC(C)C)C(=O)O)[C@@H](C)O (H-LLDILDTAGL-OH; N-terminus and C-terminus assumed) | – | – | IC50 (HLA-A02.01 [1]; Observed Affinity (IC50): 716 nM |
| CSCC[C@H](NC(=O)[C@H](CC(C)C)NC(=O)[C@H](CCCCN)NC(=O)[C@@H](N)CCCCN)C(=O)N[C@@H](CC(C)C)C(=O)N[C@@H](CC(C)C)C(=O)N[C@@H](CCCNC(=N)N)C(=O)N[C@@H](CC(C)C)C(=O)N[C@@H](CC(N)=O)C(=O)N[C@@H](CC(C)C)C(=O)O (H-KKLMLLRLNL-OH; N-terminus and C-terminus assumed) | 289 | – | – |
| CC(C)C[C@H](NC(=O)CNC(=O)[C@H](Cc1c[nH]c2ccccc12)NC(=O)[C@H](CC(=O)O)NC(=O)[C@H](CCCCN)NC(=O)CNC(=O)[C@H](CCC(N)=O)NC(=O)[C@@H](NC(=O)[C@@H](N)Cc1ccccc1)C(C)C)C(=O)O | 34 | – | – |
| CC[C@H](C)[C@H](NC(=O)[C@H](CC(N)=O)NC(=O)[C@H](CCSC)NC(=O)[C@H](Cc1c[nH]cn1)NC(=O)[C@H](CC(N)=O)NC(=O)CNC(=O)[C@H](CC(C)C)NC(=O)[C@@H](N)Cc1ccc(O)cc1)C(=O)N[C@@H](C)C(=O)N[C@@H](CC(N)=O)C(=O)O (H-YLGNHMNIAN-OH; N-terminus and C-terminus assumed) | – | – | IC50 (HLA-A02.01 [1]; Observed Affinity (IC50): 1340 nM |
| CC(C)C[C@H](NC(=O)[C@H](CC(=O)O)NC(=O)[C@H](CO)NC(=O)[C@H](CCC(N)=O)NC(=O)[C@H](CCC(N)=O)NC(=O)[C@@H](N)CCC(N)=O)C(=O)N[C@@H](CCC(N)=O)C(=O)N1CCC[C@H]1C(=O)N1CCC[C@H]1C(=O)N[C@@H](C)C(=O)O (H-QQQSDLQPPA-OH; N-terminus and C-terminus assumed) | – | – | IC50 (HLA-A02.01 [1]; Observed Affinity (IC50): 646 nM |
| CC(C)C[C@H](NC(=O)[C@H](CC(=O)O)NC(=O)[C@H](CO)NC(=O)[C@H](CCC(N)=O)NC(=O)[C@@H](N)CCC(N)=O)C(=O)N[C@@H](CCC(N)=O)C(=O)N1CCC[C@H]1C(=O)N1CCC[C@H]1C(=O)N[C@@H](C)C(=O)O (H-QQSDLQPPA-OH; N-terminus and C-terminus assumed) | – | – | IC50 (HLA-A02.01 [1]; Observed Affinity (IC50): 70 nM |
| CC(C)C[C@H](NC(=O)[C@@H]1CCCN1C(=O)[C@@H]1CCCN1C(=O)[C@@H](NC(=O)[C@H](CC(=O)O)NC(=O)[C@H](CCC(=O)O)NC(=O)[C@@H]1CCCN1C(=O)[C@H](CC(C)C)NC(=O)[C@@H](N)CC(C)C)[C@@H](C)O)C(=O)O (H-LLPEDTPPL-OH; N-terminus and C-terminus assumed) | 2.8 | – | – |
| CC[C@H](C)[C@H](NC(=O)[C@H](CCCCN)NC(=O)[C@H](Cc1ccc(O)cc1)NC(=O)[C@@H](NC(=O)[C@@H](NC(=O)[C@H](CC(=O)O)NC(=O)[C@H](CO)NC(=O)[C@H](CCSC)NC(=O)[C@@H](NC(=O)[C@@H](N)Cc1ccccc1)C(C)C)[C@@H](C)O)[C@@H](C)O)C(=O)O (H-FVMSDTTYKI-OH; N-terminus and C-terminus assumed) | – | – | IC50 (HLA-A02.01 [1]; Observed Affinity (IC50): 62.4 nM |
| CC(C)C[C@H](NC(=O)[C@H](CO)NC(=O)[C@H](CCCNC(=N)N)NC(=O)[C@H](Cc1c[nH]c2ccccc12)NC(=O)[C@H](CCC(N)=O)NC(=O)[C@@H](NC(=O)CNC(=O)[C@H](C)NC(=O)[C@H](CCC(N)=O)NC(=O)[C@H](C)N)C(C)C)C(=O)O (H-AQAGVQWRSL-OH; N-terminus and C-terminus assumed) | 670 | – | – |
| CC(C)C[C@H](NC(=O)[C@@H](N)C(C)C)C(=O)N[C@@H](CCC(N)=O)C(=O)N[C@@H](CCCNC(=N)N)C(=O)N[C@@H](Cc1ccccc1)C(=O)N[C@@H](CCCNC(=N)N)C(=O)N[C@@H](Cc1ccccc1)C(=O)N[C@H](C(=O)N[C@@H](Cc1c[nH]cn1)C(=O)N[C@H](C(=O)O)C(C)C)[C@@H](C)O | 107 | – | – |
| CSCC[C@H](NC(=O)[C@H](CCCCN)NC(=O)[C@H](CCCNC(=N)N)NC(=O)[C@H](CC(C)C)NC(=O)[C@H](CC(N)=O)NC(=O)[C@H](CC(C)C)NC(=O)[C@H](CCCNC(=N)N)NC(=O)[C@H](CC(C)C)NC(=O)[C@H](CC(C)C)NC(=O)[C@@H](N)CCSC)C(=O)O | 2510 | – | – |
| CC(C)C[C@H](NC(=O)[C@H](CC(C)C)NC(=O)[C@H](CC(C)C)NC(=O)[C@H](CC(=O)O)NC(=O)[C@H](CS)NC(=O)[C@H](CC(C)C)NC(=O)[C@@H]1CCCN1C(=O)[C@@H](NC(=O)[C@@H](NC(=O)[C@@H](N)CC(N)=O)C(C)C)C(C)C)C(=O)O (H-NVVPLCDLLL-OH; N-terminus and C-terminus assumed) | 1370 | – | – |
| CC(C)C[C@H](NC(=O)[C@H](CCCNC(=N)N)NC(=O)[C@@H](NC(=O)[C@H](CC(C)C)NC(=O)[C@H](CO)NC(=O)[C@@H](N)CCCCN)C(C)C)C(=O)N[C@@H](CO)C(=O)N[C@@H](CO)C(=O)N[C@@H](CS)C(=O)N[C@H](C(=O)O)C(C)C (H-KSLVRLSSCV-OH; N-terminus and C-terminus assumed) | 280 | – | – |
